{
  "source": "patent US9034400B2",
  "about": "“Process for preparation of a herbal extract” (Piramal Enterprises Limited, priority 2011, dated 2015)",
  "test_system": "subject with uncontrolled type II diabetes / non insulin-dependent diabetes",
  "experiment": "Anecdotal studies: hypoglycemic effect, blood glucose level of diabetic subjects",
  "assay_type": "in vivo, human",
  "settings": "before capsules",
  "data": [
    {"smiles": "CN(C)C(=N)N=C(N)N", "note": "[metformin]", "values": [
      {"measurement": "daily blood glucose level (base level) on metformin alone", "setting": "study 2: person, 61 kg, non insulin-dependent diabetes, metformin 500 mg BID", "result": 234, "unit": "mg/dL"},
      {"measurement": "daily blood glucose level (base level) on metformin alone", "setting": "study 3: person, 67 kg, non insulin-dependent uncontrolled diabetic, metformin 500 mg, three tablets per day", "result": 261, "unit": "mg/dL"}
    ]}
  ]
}
